Values of other authors in US20110077278A1, “Antifungal compositions and methods” (Troy Corporation, priority 2009, published 2011).

What was measured:
certain fungi = conditions: BBIT in the presence of sodium omadine and certain fungi; US 6,861,395
[1] = in metal working fluids; BBIT compared with IPBC; reported by US 6,861,395

For `CCCCn1sc2ccccc2c1=O` [BBIT, 2-n-butyl-1,2-benzisothiazolin-3-one], the synergy (certain fungi) is given as “exhibits synergy in the presence of sodium omadine and certain fungi” and the “stability to high temperature storage” value [1] is given as “considerably more stable to high temperature storage than IPBC”.
